Laboratory results as given in ChEMBL document CHEMBL2401728, “An unexpected Dimroth rearrangement leading to annelated thieno[3,2-d][1,2,3]triazolo[1,5-a]pyrimidines with potent antitumor activity” (Eur J Med Chem, 2013).

Assays:
[1] = Cytotoxicity against human breast cancer cells assessed as cellular growth at 10 uM after 48 hrs by SRB assay relative to control; format: functional, Cancer cell lines
[2] = Cytotoxicity against human leukemia cells assessed as cellular growth at 10 uM after 48 hrs by SRB assay relative to control; format: functional, Leukemia cell
[3] = Cytotoxicity against human CNS cancer cells assessed as cellular growth at 10 uM after 48 hrs by SRB assay relative to control; format: functional, Cancer cell lines
[4] = Cytotoxicity against human non-small cell lung cancer cells assessed as cellular growth at 10 uM after 48 hrs by SRB assay relative to control; format: functional, Cancer cell lines
[5] = Cytotoxicity against human ovarian cancer cells assessed as cellular growth at 10 uM after 48 hrs by SRB assay relative to control; format: functional, Cancer cell lines
[6] = Cytotoxicity against human prostate cancer cells assessed as cellular growth at 10 uM after 48 hrs by SRB assay relative to control; format: functional, Cancer cell lines
[7] = Cytotoxicity against human melanoma cells assessed as cellular growth at 10 uM after 48 hrs by SRB assay relative to control; format: functional, Melanoma cell
[8] = Cytotoxicity against human colon cancer cells assessed as cellular growth at 10 uM after 48 hrs by SRB assay relative to control; format: functional, Cancer cell lines
[9] = Cytotoxicity against human renal cancer cells assessed as cellular growth at 10 uM after 48 hrs by SRB assay relative to control; format: functional, Cancer cell lines
HT-29 = test: Cytotoxicity against human HT-29 cells after 48 hrs by SRB assay; format: functional; settings: HT-29, 48 h, read-out: pLC50 (the source's name) (converted)
A549 = test: Cytotoxicity against human A549 cells after 48 hrs by SRB assay; format: functional; settings: A549, 48 h, read-out: pLC50 (converted)
SNB-19 = test: Cytotoxicity against human SNB19 cells after 48 hrs by SRB assay; format: functional; settings: SNB-19, 48 h, read-out: pLC50 (the source's name) (converted)
HCC 2998 = test: Cytotoxicity against human HCC2998 cells after 48 hrs by SRB assay; format: functional; settings: HCC 2998, 48 h, read-out: pLC50 (the source's name) (converted)
MDA-MB-435 = test: Cytotoxicity against human MDA-MB-435 cells after 48 hrs by SRB assay; format: functional; settings: MDA-MB-435, 48 h, read-out: pLC50 (the source's name) (converted)
MOLT-4 = test: Cytotoxicity against human MOLT4 cells after 48 hrs by SRB assay; format: functional; settings: MOLT-4, 48 h, read-out: pLC50 (the source's name) (converted)
MCF7 = test: Cytotoxicity against human MCF7 cells after 48 hrs by SRB assay; format: functional; settings: MCF7, 48 h
CCRF-CEM = test: Cytotoxicity against human CCRF-CEM cells after 48 hrs by SRB assay; format: functional
K562 = test: Cytotoxicity against human K562 cells after 48 hrs by SRB assay; format: functional; settings: K562, 48 h, read-out: pLC50 (the source's name) (converted)
HCT-15 = test: Cytotoxicity against human HCT15 cells after 48 hrs by SRB assay; format: functional; settings: HCT-15, 48 h, read-out: pTGI (converted)
[10] = Cytotoxicity against human EKVX cells after 48 hrs by SRB assay; format: functional; settings: read-out: pLC50 (the source's name) (converted)
RPMI-8226 = test: Cytotoxicity against human RPMI8226 cells after 48 hrs by SRB assay; format: functional; settings: RPMI-8226, 48 h, read-out: pLC50 (converted)

## CN1CCN(CCCn2c(=O)c3sc4ncccc4c3n3nnc(-c4ccccc4)c23)CC1
[1]
  Activity: -23%
[2]
  Activity: -22%
[3]
  Activity: -43%
[4]
  Activity: 14%
[5]
  Activity: 7%
[6]
  Activity: 39%
[7]
  Activity: -78%
[8]
  Activity: -37%
[9]
  Activity: -14%

## O=C(CCCn1c(=O)c2sc3ncccc3c2n2nnc(-c3ccccc3)c12)NCCc1c[nH]cn1
HT-29
  CC50: > 100 µM
[1]
  Activity: 79%
[2]
  Activity: 61%
A549
  CC50: > 100 µM
SNB-19
  CC50: > 100 µM
HCC 2998
  CC50: > 100 µM
MDA-MB-435
  CC50: > 100 µM
[3]
  Activity: 60%
[4]
  Activity: 88%
[5]
  Activity: 59%
MOLT-4
  CC50: > 100 µM
[6]
  Activity: 46%
[7]
  Activity: 71%
MCF7; read-out: pLC50 (converted)
  LC50: > 100 µM
MCF7; read-out: pTGI (converted)
  TGI: 100 µM
[8]
  Activity: 49%
[9]
  Activity: 79%
CCRF-CEM; read-out: pLC50 (the source's name) (converted)
  CC50: > 100 µM
K562
  CC50: > 100 µM
HCT-15
  TGI: 100 µM
[10]
  CC50: > 100 µM
RPMI-8226
  CC50: > 100 µM

## O=C(CCCn1c(=O)c2sc3ccccc3c2n2nnc(-c3ccccc3)c12)NCCc1c[nH]cn1
[1]
  Activity: -5%
[2]
  Activity: 71%
[3]
  Activity: -18%
[4]
  Activity: -26%
[5]
  Activity: -16%
[6]
  Activity: -41%
[7]
  Activity: -57%
[8]
  Activity: -49%
[9]
  Activity: -34%
CCRF-CEM; read-out: pTGI (converted)
  TGI: 100 µM
